Assay results as given in paper PMC12834961 (Scientific Reports, 2025).

Target: epidermal growth factor receptor (EGFR) (Homo sapiens, UniProt P00533)
Assay: SPR
Format: binding

epidermal growth factor receptor (EGFR), sequence (P00533 25-1210): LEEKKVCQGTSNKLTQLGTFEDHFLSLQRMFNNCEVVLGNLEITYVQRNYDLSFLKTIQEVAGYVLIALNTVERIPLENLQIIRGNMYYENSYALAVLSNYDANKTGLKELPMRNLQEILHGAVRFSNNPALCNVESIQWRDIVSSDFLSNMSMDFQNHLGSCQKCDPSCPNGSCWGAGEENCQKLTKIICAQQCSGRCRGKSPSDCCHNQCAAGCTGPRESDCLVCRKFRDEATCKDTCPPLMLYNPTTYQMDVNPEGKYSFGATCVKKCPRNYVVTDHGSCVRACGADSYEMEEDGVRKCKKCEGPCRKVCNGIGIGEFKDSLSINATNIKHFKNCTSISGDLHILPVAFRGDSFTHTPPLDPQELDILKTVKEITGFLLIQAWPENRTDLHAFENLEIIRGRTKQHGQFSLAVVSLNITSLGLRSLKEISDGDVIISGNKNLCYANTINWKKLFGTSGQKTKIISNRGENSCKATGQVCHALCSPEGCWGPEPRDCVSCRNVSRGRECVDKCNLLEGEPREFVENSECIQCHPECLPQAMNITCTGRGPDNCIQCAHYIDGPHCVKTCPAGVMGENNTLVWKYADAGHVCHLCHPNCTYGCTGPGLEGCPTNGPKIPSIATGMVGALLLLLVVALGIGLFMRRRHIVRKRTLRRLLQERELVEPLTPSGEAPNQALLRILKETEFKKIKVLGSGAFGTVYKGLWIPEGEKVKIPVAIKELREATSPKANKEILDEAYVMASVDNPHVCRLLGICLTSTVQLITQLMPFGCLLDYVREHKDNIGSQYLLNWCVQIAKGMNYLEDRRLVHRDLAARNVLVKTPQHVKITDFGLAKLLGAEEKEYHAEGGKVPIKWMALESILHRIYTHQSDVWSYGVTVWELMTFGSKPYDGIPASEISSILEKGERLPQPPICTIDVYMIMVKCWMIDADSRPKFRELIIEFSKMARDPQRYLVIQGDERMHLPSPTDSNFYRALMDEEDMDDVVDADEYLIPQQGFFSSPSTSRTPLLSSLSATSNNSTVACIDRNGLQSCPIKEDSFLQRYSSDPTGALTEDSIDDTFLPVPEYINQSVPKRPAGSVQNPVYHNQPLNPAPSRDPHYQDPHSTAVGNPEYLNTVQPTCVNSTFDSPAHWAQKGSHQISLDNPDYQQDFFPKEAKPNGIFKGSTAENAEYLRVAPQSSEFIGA

Compound: O=c1c(-c2ccc(O[C@@H]3O[C@H](CO)[C@@H](O)[C@H](O)[C@H]3O)cc2)coc2cc(O)cc(O)c12 [Sop, Sophoricoside]
- Kd: ~56.1 µM
